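Here, GI50 denotes the concentration required for 50% inhibition of growth. TGI marks complete inhibition of growth.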
Experiments:
Assay in all cases: inhibition of tumour cell growth, NCI panel, 384-well format
786-0 renal = tested on: 786-0 renal
A498 renal = tested on: A498 renal
A549 NSCLC = tested on: A549 NSCLC
ACHN renal = tested on: ACHN renal
BT-549 breast = tested on: BT-549 breast
CAKI-1 renal = tested on: CAKI-1 renal
CCRF-CEM leukemia = tested on: CCRF-CEM leukemia
DU-145 prostate = tested on: DU-145 prostate
EKVX NSCLC = tested on: EKVX NSCLC
HCC-2998 colon = tested on: HCC-2998 colon
HCT-116 colon = tested on: HCT-116 colon
HCT-15 colon = tested on: HCT-15 colon
HL-60(TB) leukemia = tested on: HL-60(TB) leukemia
HOP-62 NSCLC = tested on: HOP-62 NSCLC
HOP-92 NSCLC = tested on: HOP-92 NSCLC
HS 578T breast = tested on: HS 578T breast
HT29 colon = tested on: HT29 colon
IGROV1 ovarian = tested on: IGROV1 ovarian
K-562 leukemia = tested on: K-562 leukemia
KM12 colon = tested on: KM12 colon
MCF7 breast = tested on: MCF7 breast
MDA-MB-435 melanoma = tested on: MDA-MB-435 melanoma
MDA-MB-468 breast = tested on: MDA-MB-468 breast
MOLT-4 leukemia = tested on: MOLT-4 leukemia
NCI-H226 lung = tested on: NCI-H226 lung
NCI-H23 lung = tested on: NCI-H23 lung
NCI-H322M lung = tested on: NCI-H322M lung
NCI-H460 NSCLC = tested on: NCI-H460 NSCLC
NCI-H522 lung = tested on: NCI-H522 lung
NCI/ADR-RES ovarian = tested on: NCI/ADR-RES ovarian
OVCAR-3 ovarian = tested on: OVCAR-3 ovarian
OVCAR-4 ovarian = tested on: OVCAR-4 ovarian
OVCAR-5 ovarian = tested on: OVCAR-5 ovarian
OVCAR-8 ovarian = tested on: OVCAR-8 ovarian
PC-3 prostate = tested on: PC-3 prostate
RPMI-8226 leukemia = tested on: RPMI-8226 leukemia
RXF 393 renal = tested on: RXF 393 renal
SF-268 CNS = tested on: SF-268 CNS
SF-295 CNS = tested on: SF-295 CNS
SF-539 CNS = tested on: SF-539 CNS
SK-MEL-2 melanoma = tested on: SK-MEL-2 melanoma
SK-MEL-5 melanoma = tested on: SK-MEL-5 melanoma
SK-OV-3 ovarian = tested on: SK-OV-3 ovarian
SN12C renal = tested on: SN12C renal
SNB-19 CNS = tested on: SNB-19 CNS
SNB-75 CNS = tested on: SNB-75 CNS
SR leukemia = tested on: SR leukemia
SW-620 colon = tested on: SW-620 colon
T-47D breast = tested on: T-47D breast
TK-10 renal = tested on: TK-10 renal
U251 glioblastoma = tested on: U251 glioblastoma
UACC-257 melanoma = tested on: UACC-257 melanoma
UO-31 renal = tested on: UO-31 renal

`COC(=O)N1c2ccc3c(nc(Cc4ccccc4)n3[C@H]3CCC[C@H](C(=O)O)C3)c2CC[C@@H]1C` was tested, and the GI50 ([…]-0 renal) was 6.57 µM, the TGI (786-0 renal) was over 100 µM and the GI50 (A498 renal) was 24.9 µM. It also gave a TGI (A498 renal) of over 100 µM, a GI50 (A549 NSCLC) of 26.6 µM and a TGI (A549 NSCLC) of over 100 µM. The GI50 (ACHN renal) was 14.5 µM, the TGI (ACHN renal) was over 100 µM and the GI50 (BT-549 breast) was 2670 nM. The TGI (BT-549 breast) was 37.6 µM, the GI50 (CAKI-1 renal) was 1480 nM and the TGI (CAKI-1 renal) was over 100 µM. For the same compound, the GI50 (CCRF-CEM leukemia) was 1830 nM, the TGI (CCRF-CEM leukemia) was 19.2 µM and the GI50 (DU-145 prostate) was 26.8 µM. The TGI (DU-145 prostate) was over 100 µM, the GI50 (EKVX NSCLC) was 47 µM and the TGI (EKVX NSCLC) was over 100 µM. It also gave a GI50 (HCC-2998 colon) of 2050 nM, a TGI (HCC-2998 colon) of 11.8 µM and a GI50 (HCT-116 colon) of 13.9 µM. For the same compound, the TGI (HCT-116 colon) was over 100 µM, the GI50 (HCT-15 colon) was 14.1 µM and the TGI (HCT-15 colon) was over 100 µM. The GI50 (HL-60(TB) leukemia) was 32.2 nM, the TGI (HL-60(TB) leukemia) was 1510 nM and the GI50 (HOP-62 NSCLC) was 8.43 µM. For the same compound, the TGI (HOP-62 NSCLC) was over 100 µM, the GI50 (HOP-92 NSCLC) was 3.5 µM and the TGI (HOP-92 NSCLC) was 81.9 µM. It also gave a GI50 (HS 578T breast) of 1670 nM, a TGI (HS 578T breast) of 33.7 µM and a GI50 (HT29 colon) of 6.35 µM. For the same compound, the TGI (HT29 colon) was over 100 µM, the GI50 (IGROV1 ovarian) was 7.99 µM and the TGI (IGROV1 ovarian) was 77.4 µM. For the same compound, the GI50 (K-562 leukemia) was 3.06 µM, the TGI (K-562 leukemia) was over 100 µM and the GI50 (KM12 colon) was 14.7 µM. It also gave a TGI (KM12 colon) of over 100 µM, a GI50 (MCF7 breast) of 692 nM and a TGI (MCF7 breast) of 33.4 µM. The GI50 (MDA-MB-435 melanoma) was 14.5 µM, the TGI (MDA-MB-435 melanoma) was over 100 µM and the GI50 (MDA-MB-468 breast) was 8.31 µM. It also gave a TGI (MDA-MB-468 breast) of 61.2 µM, a GI50 (MOLT-4 leukemia) of 1940 nM and a TGI (MOLT-4 leukemia) of 16.5 µM. It also gave a GI50 (NCI-H226 lung) of 2080 nM, a TGI (NCI-H226 lung) of 40.2 µM and a GI50 (NCI-H23 lung) of 20 µM. It also gave a TGI (NCI-H23 lung) of over 100 µM, a GI50 (NCI-H322M lung) of 11.1 µM and a TGI (NCI-H322M lung) of 89.7 µM. For the same compound, the GI50 (NCI-H460 NSCLC) was 31.5 µM, the TGI (NCI-H460 NSCLC) was over 100 µM and the GI50 (NCI-H522 lung) was 1600 nM. It also gave a TGI (NCI-H522 lung) of 18.7 µM, a GI50 (NCI/ADR-RES ovarian) of 82.9 µM and a TGI (NCI/ADR-RES ovarian) of over 100 µM. It also gave a GI50 (OVCAR-3 ovarian) of 5.8 µM, a TGI (OVCAR-3 ovarian) of 75 µM and a GI50 (OVCAR-4 ovarian) of 5.43 µM. It also gave a TGI (OVCAR-4 ovarian) of 31 µM, a GI50 (OVCAR-5 ovarian) of 12.5 µM and a TGI (OVCAR-5 ovarian) of 84.7 µM. The GI50 (OVCAR-8 ovarian) was 6.82 µM, the TGI (OVCAR-8 ovarian) was 54.4 µM and the GI50 (PC-3 prostate) was 4.78 µM. It also gave a TGI (PC-3 prostate) of over 100 µM, a GI50 (RPMI-8226 leukemia) of 133 nM and a TGI (RPMI-8226 leukemia) of 314 nM. The GI50 (RXF 393 renal) was 4.47 µM, the TGI (RXF 393 renal) was 29.5 µM and the GI50 (SF-268 CNS) was 24.2 µM. The TGI (SF-268 CNS) was over 100 µM, the GI50 (SF-295 CNS) was 22 µM and the TGI (SF-295 CNS) was over 100 µM. For the same compound, the GI50 (SF-539 CNS) was 20.4 µM, the TGI (SF-539 CNS) was over 100 µM and the GI50 (SK-MEL-2 melanoma) was 14.7 µM. It also gave a TGI (SK-MEL-2 melanoma) of over 100 µM, a GI50 (SK-MEL-5 melanoma) of 2540 nM and a TGI (SK-MEL-5 melanoma) of 15.6 µM. It also gave a GI50 (SK-OV-3 ovarian) of 18.9 µM, a TGI (SK-OV-3 ovarian) of over 100 µM and a GI50 (SN12C renal) of 11.5 µM. The TGI (SN12C renal) was over 100 µM, the GI50 (SNB-19 CNS) was 9.78 µM and the TGI (SNB-19 CNS) was over 100 µM. The GI50 (SNB-75 CNS) was over 100 µM, the TGI (SNB-75 CNS) was over 100 µM and the GI50 (SR leukemia) was 1490 nM. The TGI (SR leukemia) was 18.3 µM, the GI50 (SW-620 colon) was over 100 µM and the TGI (SW-620 colon) was over 100 µM. The GI50 (T-47D breast) was 10 µM, the TGI (T-47D breast) was over 100 µM and the GI50 (TK-10 renal) was 2160 nM. It also gave a TGI (TK-10 renal) of 37.4 µM, a GI50 (U251 glioblastoma) of 25 µM and a TGI (U251 glioblastoma) of over 100 µM. For the same compound, the GI50 (UACC-257 melanoma) was 5.22 µM, the TGI (UACC-257 melanoma) was 82 µM and the GI50 (UO-31 renal) was 7.99 µM. It also gave a TGI (UO-31 renal) of over 100 µM.

Reference: PubChem BioAssay (NCI)
